Data taken from patent publication US20110104159A1, “COMPOSITIONS AND METHODS FOR TREATING, CONTROLLING, REDUCING, AMELIORATING, OR PREVENTING ALLERGY” (priority 2006, published 2011).
Several values for one entry are separate records, joined by “and”; a condition that tells them apart may be missing. Equal entries are not always repeated.

Tests used:
[1] = tested on: ovalbumin-sensitized guinea pigs; assay: Active anaphylaxis in the guinea pig: conjunctival symptoms after OVA challenge; assay type: in vivo; conditions: 0.4% eye drops, 30 μl/eye 45 min before OVA
Method: Male Dunkin-Hartley guinea pigs (250-300 g) were purchased from Charles River (Calco, Italy). Animal procedures followed the guidelines of the University of Bologna Animal Care and Use Committee and conformed to the Association for Research in Vision and Ophthalmology (ARVO) resolution on the use of animals in research.
Male Dunkin-Hartley guinea pigs were actively immunized by i.p. injection of 200 μg OVA in 2 ml saline with 40 mg aluminum hydroxide (positive control) or saline alone (negative control), as previously reported. […] Negative controls received saline alone.
Conjunctival clinical symptoms were rated blind on both eyes using the following scale: 0, no symptoms; 1, slight conjunctival redness with or without tears; 2, mild conjunctival redness with tears and mild chemosis; 3, mild conjunctival redness with tears and moderate chemosis; 4, severe conjunctival redness with tears and partial lid eversion; 5, severe conjunctival redness with tears and lids more than half closed. The animals were euthanized 24 h after OVA challenge by i.p. injection of Tanax® (3 ml/kg; Hoechst AG, Frankfurt-am-Main, Germany) and the conjunctivas were carefully excised and each was divided into two samples for subsequent investigations. […] The number of eosinophils in each field was counted under light microscopy (×500 magnification). In the other sample eosinophil peroxidase activity was measured.

caspase-3 = assay: Caspase-3 activation in human eosinophils (Western blotting); assay type: cell-based; conditions: 24 h, 0.1% FBS; BOL-303242-X 1-1000 nM, dexamethasone 1000 nM
Method: Human eosinophils were pelleted and resuspended in 100 μl of CER I buffer (NE-PER™ Extraction reagent; Pierce). After 10 min incubation on ice, 5.5 μl of CER II buffer was added and the suspension was resuspended by vortexing, incubated on ice for 1 min and resuspended. The cytoplasmic fraction was separated by centrifugation at 16,000 g for 5 min. The protein content was quantified using a BCA protein assay (Pierce). The proteins of the cytoplasmic extract (50 μg) were denatured at 95° C. for 3 min, then loaded and separated by 15% sodium dodecyl sulfate-polyacrylamide gel electrophoresis (SDS-PAGE). We used MagicMark™ XP Western Standard as a molecular weight standard.
Proteins were transferred to Protran™ nitrocellulose membranes, which were blocked with 5% non-fat milk in TBS (10 mM Tris-HCl, pH 8, containing 150 mM NaCl) plus 0.1% Tween 20 for 1 h at room temperature (25° C.). The blots were probed overnight at 4° C. in TBS containing 0.1% Tween 20, 5% non-fat milk and antibodies with dilutions of 1:1000 for caspase-3 monoclonal antibody or 1:5000 for β-actin antibody (used as a loading control for cytoplasmic cell lysates). The former detects endogenous levels of procaspase-3 (around 32 kDa; p32) and its large subunit cleavage product of approximately 17 kDa (p17). The membranes were incubated with peroxidase-conjugated secondary antibodies at a dilution of 1:8000. […]

CXCR4 receptor = CXCR4 receptor surface expression in human eosinophils (FACS), transactivation marker; assay type: cell-based; conditions: 24 h
Method: FACS was performed to measure cell surface expression of annexin I and CXCR4 as indicators of glucocorticoid-mediated transactivation. Human eosinophils were double-stained with a red dye-conjugated secondary antibody to trace changes in the expression of CXCR4 or I, and a green dye-conjugated annexin V to exclude apoptotic cells from the analysis. The cells were counted and transferred to a 24-well plate (10^6 cells/well) and serum-starved (0.1% FBS) for 24 h.
At the end of the incubation, the cells were harvested and each sample was divided into two tubes to run parallel tests for annexin I and CXCR4 surface expression. After rinsing all samples with a HBSS solution containing 1% BSA, the cells were incubated for 45 min on a shaker with anti-annexin I or anti-CXCR4 antibodies (1:200) on ice; the negative control was incubated with an isotype-specific control antibody.
The cells were then washed twice with HBSS/BSA buffer before exposure to the Alexa Fluor® 568-conjugated secondary antibody. The excess of unbound antibody was washed away, and all samples were incubated for 15 min in the presence of annexin V-Fluos. […] Electronic gates were set on annexin V-negative cells and CXCR4 or annexin I-positive cells. Data from 10,000 cells/sample were analyzed using dedicated software (Becton, Dickinson and Company). The % of CXCR4 or annexin I positive cells was calculated.

[2] = tested on: rabbit paracentesis model; assay: Clinical evaluation by slit lamp (clinical score), rabbit paracentesis model; assay type: in vivo; set-up: key to Clinical Score −180 min / Clinical Score −5 min / Clinical Score +115 min: 0: normal; 1: discrete dilatation of iris and conjunctival vessels; 2: moderate dilatation of iris and conjunctival vessels; 3: intense iridal hyperemia with flare in the anterior chamber; 4: intense iridal hyperemia with flare in the anterior chamber and presence of fibrinous exudates; conditions: for Clinical Score −5 min: 5 min before first paracentesis; for Clinical Score −5 min / Clinical Score +115 min / Clinical Score −180 min: individual eye, scale 0-4; for Clinical Score +115 min: 5 min before second paracentesis; for Clinical Score −180 min: basal
EoL-1 cells = assay: EoL-1 cell apoptosis (annexin V/PI flow cytometry); assay type: cell-based, human
Method: EoL-1 cells were grown in RPMI-1640+L-glutamine medium (containing 10% FBS) and kept at 37° C. in a 5% CO2 humidified atmosphere. Before each experiment, the cells were stabilized in serum-depleted media (0.1% FBS) for 24 h before treatments.

## Cc1ccc2c(NC[C@](O)(CC(C)(C)c3cc(F)cc4c3OCC4)C(F)(F)F)cccc2n1 [BOL-303242-X, (R)-1,1,1-Trifluoro-4-(5-fluoro-2,3-dihydrobenzofuran-7-yl)-4-methyl-2-{[(2-methyl-5-quinolyl)amino]methyl}pentan-2-ol]
[1]; 1 h after challenge
  Conjunctival symptoms (swelling of the eyelids and chemosis), early phase: significantly reduced
[1]; 6 h after challenge
  Severity of conjunctival symptoms, late phase: significant reduction in the severity of conjunctival symptoms
caspase-3
  Caspase-3 p17 subunit level (Western blot): marked, concentration-dependent increase of the p17 subunit
CXCR4 receptor; 10 000 nM, significantly lower than 1000 nM dexamethasone
  CXCR4 receptor surface expression: partially increased this receptor on the cell surface
CXCR4 receptor; up to 5000 nM, vs vehicle-treated or control eosinophils
  CXCR4 receptor surface expression: did not change CXCR4 receptor expression
[2]; 0.1% topical
  Clinical Score −5 min: 0
  Clinical Score −180 min: 0
[2]; 0.1% topical, listed as BOL
  Clinical Score +115 min: 2 (6×) and 3 (2×)
[2]; 0.1% topical, +115 min, 8 eyes
  Percentage of eyes with clinical score 2: 75%
  Percentage of eyes with clinical score 3: 25%
[2]; 0.1% topical, −5 min, 8 eyes
  Percentage of eyes with clinical score 0: 100%
[2]; 0.1% topical, −180 min, 8 eyes
  Percentage of eyes with clinical score 0: 100%
[2]; 0.5% topical
  Clinical Score −5 min: 0
  Clinical Score −180 min: 0
[2]; 0.5% topical, listed as BOL
  Clinical Score +115 min: 2 (5×) and 1 (3×)
[2]; 0.5% topical, +115 min, 8 eyes
  Percentage of eyes with clinical score 1: 37.5%
  Percentage of eyes with clinical score 2: 62.5%
[2]; 0.5% topical, −5 min, 8 eyes
  Percentage of eyes with clinical score 0: 100%
[2]; 0.5% topical, −180 min, 8 eyes
  Percentage of eyes with clinical score 0: 100%
[2]; 1% topical
  Clinical Score −5 min: 0
  Clinical Score +115 min: 2
  Clinical Score −180 min: 0
[2]; 1% topical, +115 min, 8 eyes
  Percentage of eyes with clinical score 2: 100%
[2]; 1% topical, −5 min, 8 eyes
  Percentage of eyes with clinical score 0: 100%
[2]; 1% topical, −180 min, 8 eyes
  Percentage of eyes with clinical score 0: 100%
EoL-1 cells; 0.1% FBS 96 h, compound during the last 72 h
  Efficacy, enhancement of spontaneous EoL-1 cell apoptosis: 61%
EoL-1 cells; 72 h, 5000 nM, n=12, p>0.05 vs without compound (12±5%)
  Percentage of annexin-V+/PI+ (necrotic) EoL-1 cells: 7±4%
EoL-1 cells; Homo sapiens, EOL1, 0.1% FBS 96 h, compound during the last 72 h, read-out: EC50, enhancement of spontaneous EoL-1 cell apoptosis
  EC50: 315 nM
